Our source for the IC50 values is patent publication US20120004257A1, “NOVEL COMPOUNDS” (priority 2010, published 2012).

Counter-ions that a name gives are not always drawn.

What all share (assay type): biochemical
Assay [1] has as its system noradrenaline (NA) reuptake in synaptosomes. Kind of assay: NA reuptake inhibition in synaptosomes. The following applies: 3H-NA, read-out: NA-uptake IC50. An excerpt:
(§1) Compounds of the invention may be tested for their ability to inhibit reuptake of the monoamines dopamine, noradrenaline and serotonin in synaptosomes e.g. such as described in WO 97/30997 (NeuroSearch A/S) or WO 97/16451 (NeuroSearch A/S). The compounds of the invention may also be tested for their antinociceptive activity e.g. such as described below: Background: formalin injection into the rat hindpaw initiates […] spontaneous nociceptive behaviours consisting of either flinching, and licking and/or biting of the injected paw. The first phase occurs as a direct chemical stimulation of nociceptors, and is followed by a period of relative quiescence called interphase that can be attributed to activation of noxious inhibitory control pathways; primarily 5-HT and NA pathways originating from brainstem nuclei. The second phase occurs as a result of increased primary afferent afferent drive with subsequent sensitization of nociceptive spinal neurones (Coderre et al., 1993). Animals: adult male Sprague-Dawley rats (Harlan Scandinavia, Alleroed, Denmark). The experiments was performed according to the Ethical Guidelines of the International Association for the Study of Pain (Zimmermann, 1983) and the Danish Committee for Experiments on Animals. […] MED and ED50 values were calculated where possible. Data (mean+/−SEM) were analyzed using one way ANOVA followed by Bonferonni's t test. […]

In assay [2] the test system is serotonine (5-HT) reuptake in synaptosomes. Kind of assay: 5-HT reuptake inhibition in synaptosomes. The following applies: 3H-5-HT, read-out: 5-HT-uptake IC50.
From the text: as §1

For assay [3], the system named is dopamine (DA) reuptake in synaptosomes. Kind of assay: DA reuptake inhibition in synaptosomes. The following applies: 3H-DA, read-out: DA-uptake IC50.
From the text: as §1

As a reminder, the IC50 is the concentration that gives 50% inhibition. On to `CCc1cc2ccc(O[C@@H]3C[C@H]4CC[C@@H](C3)N4)cc2oc1=O` [Compound 1.1, exo-7-[(8-Aza-bicyclo[3.2.1]oct-3-yl)oxy]-3-ethyl-chromen-2-one hydrochloride], for which the IC50 in assay [1] worked out at 47 nM; in assay [2] it was 7.8 nM; in assay [3], 500 nM.
